One data set addresses Cholinesterase (Equus caballus, UniProt P81908). Put plainly: Inhibition of equine serum BuChE using butyrylthiocholine iodide as substrate preincubated for 5 mins followed by substrate addition and measured after 2 mins by Ellman's method. The format is cell-free. A general note: Ellman's reagent forms a yellow product with free thiols.
The target in data set [1] is Indoleamine 2,3-dioxygenase 1 (Homo sapiens, UniProt P14902). Put plainly: Inhibition of human N-terminal IDO1 expressed in Escherichia coli BL21 A1 cells using L-tryptophan as substrate measured after 30 mins by HPLC analysis.
For data set [2], the target named is Acetylcholinesterase (Electrophorus electricus) (UniProt O42275). Put plainly: Inhibition of electric eel […] iodide as substrate at 50 uM preincubated for 5 mins followed by substrate addition and measured after 2 mins by Ellman's method relative to control. The settings on record: time 7.0 min.
A further data set deals with Acetylcholinesterase (Electrophorus electricus, UniProt O42275). Put plainly: Inhibition of electric eel […] iodide as substrate preincubated for 5 mins followed by substrate addition and measured after 2 mins by Ellman's method.
Data set [3] can be described thus: Selectivity index, ratio of IC50 for inhibition of electric eel […] iodide as substrate to IC50 for inhibition of equine serum BuChE using butyrylthiocholine iodide as substrate.
Data set [4] can be described thus: Cytotoxicity against human SH-SY5Y cells assessed as reduction in cell viability after 48 hrs by MTT assay. Format: cell-based. To be noted: read-out: LD50. (In general: Tetrazolium assays rely on reduction of a dye to a coloured formazan, in cell work by metabolically active cells.)
The species entered for data set [5] is Homo sapiens. Nature of the data set: Inhibition of amyloid beta (1 to 42) (unknown origin) aggregation by ThT fluorescence assay. To be noted: dose 10-50 µM.
The species entered for data set [6] is Homo sapiens. Nature of the data set: inhibition of amyloid beta (1 to 42) (unknown origin) aggregation at 50 uM by ThT fluorescence assay relative to control.

The structures appear in SMILES notation. pIC50: −log10 of the molar value.

Acetylcholinesterase, sequence (O42275 whole entry): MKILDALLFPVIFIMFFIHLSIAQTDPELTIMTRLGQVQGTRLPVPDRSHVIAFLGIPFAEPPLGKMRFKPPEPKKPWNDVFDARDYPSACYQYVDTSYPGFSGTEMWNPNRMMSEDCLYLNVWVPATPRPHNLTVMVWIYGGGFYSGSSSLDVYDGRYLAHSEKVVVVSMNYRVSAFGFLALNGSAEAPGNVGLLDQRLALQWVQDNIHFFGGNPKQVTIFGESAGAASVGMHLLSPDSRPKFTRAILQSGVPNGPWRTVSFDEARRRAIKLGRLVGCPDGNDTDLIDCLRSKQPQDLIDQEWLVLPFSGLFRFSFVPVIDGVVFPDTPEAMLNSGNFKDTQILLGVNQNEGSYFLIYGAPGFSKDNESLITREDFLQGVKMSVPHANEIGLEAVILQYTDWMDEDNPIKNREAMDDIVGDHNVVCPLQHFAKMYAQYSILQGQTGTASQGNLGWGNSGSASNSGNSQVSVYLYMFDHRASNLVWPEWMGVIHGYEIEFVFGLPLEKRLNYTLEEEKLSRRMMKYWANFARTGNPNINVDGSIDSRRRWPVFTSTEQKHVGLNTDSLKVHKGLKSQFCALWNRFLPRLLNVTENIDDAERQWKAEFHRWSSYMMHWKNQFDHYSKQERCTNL
Cholinesterase, sequence (P81908 whole entry): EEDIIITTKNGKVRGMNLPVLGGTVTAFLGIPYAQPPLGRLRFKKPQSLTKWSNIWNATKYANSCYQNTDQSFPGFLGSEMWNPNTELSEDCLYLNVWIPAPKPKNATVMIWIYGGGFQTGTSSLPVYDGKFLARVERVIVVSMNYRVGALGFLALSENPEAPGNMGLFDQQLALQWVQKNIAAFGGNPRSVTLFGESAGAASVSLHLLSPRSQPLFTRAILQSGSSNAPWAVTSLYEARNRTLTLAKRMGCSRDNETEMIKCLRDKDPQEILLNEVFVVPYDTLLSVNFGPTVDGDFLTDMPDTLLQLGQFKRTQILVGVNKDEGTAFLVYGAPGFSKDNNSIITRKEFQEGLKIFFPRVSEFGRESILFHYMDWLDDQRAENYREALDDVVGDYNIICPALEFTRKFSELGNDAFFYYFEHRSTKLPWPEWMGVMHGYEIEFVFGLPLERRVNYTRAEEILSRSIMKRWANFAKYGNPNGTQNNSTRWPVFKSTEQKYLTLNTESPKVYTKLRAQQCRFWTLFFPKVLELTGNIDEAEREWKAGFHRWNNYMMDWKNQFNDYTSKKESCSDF
Acetylcholinesterase (Electrophorus electricus), sequence (O42275 24-633 limits assumed): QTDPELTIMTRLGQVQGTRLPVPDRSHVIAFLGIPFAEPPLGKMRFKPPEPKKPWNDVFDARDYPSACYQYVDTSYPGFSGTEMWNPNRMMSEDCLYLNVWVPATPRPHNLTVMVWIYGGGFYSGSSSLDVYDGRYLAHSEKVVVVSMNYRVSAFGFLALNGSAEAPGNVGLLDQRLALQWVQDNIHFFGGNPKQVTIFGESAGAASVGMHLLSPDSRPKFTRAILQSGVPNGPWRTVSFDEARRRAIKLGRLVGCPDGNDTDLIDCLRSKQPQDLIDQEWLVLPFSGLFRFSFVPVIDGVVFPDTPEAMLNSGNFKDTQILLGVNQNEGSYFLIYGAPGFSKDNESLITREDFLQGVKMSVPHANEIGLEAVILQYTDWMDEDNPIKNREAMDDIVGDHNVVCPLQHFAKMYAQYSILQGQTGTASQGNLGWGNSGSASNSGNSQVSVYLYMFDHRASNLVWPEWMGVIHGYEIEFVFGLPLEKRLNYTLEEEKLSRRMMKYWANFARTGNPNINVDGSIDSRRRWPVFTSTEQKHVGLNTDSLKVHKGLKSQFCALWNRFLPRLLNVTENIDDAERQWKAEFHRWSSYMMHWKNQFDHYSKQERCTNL
Indoleamine 2,3-dioxygenase 1, sequence (P14902 whole entry): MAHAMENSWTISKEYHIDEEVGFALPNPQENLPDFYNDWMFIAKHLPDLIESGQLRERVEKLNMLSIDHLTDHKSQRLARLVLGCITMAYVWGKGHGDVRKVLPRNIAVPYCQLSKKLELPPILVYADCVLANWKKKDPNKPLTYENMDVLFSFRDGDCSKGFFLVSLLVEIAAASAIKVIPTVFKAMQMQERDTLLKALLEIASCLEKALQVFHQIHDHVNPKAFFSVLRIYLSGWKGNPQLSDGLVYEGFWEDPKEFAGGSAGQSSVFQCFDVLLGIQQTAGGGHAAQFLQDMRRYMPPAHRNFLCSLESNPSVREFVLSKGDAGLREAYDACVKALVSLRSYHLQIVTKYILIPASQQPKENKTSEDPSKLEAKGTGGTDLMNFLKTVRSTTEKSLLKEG

For orientation: pIC50 means the negative decadic logarithm of the IC50, by convention in mol/L. The term inhibition denotes the relative decrease from the control value, in per cent. On to `Fc1cc(C(Cn2ccnc2)OCc2nc3ccccc3s2)ccc1Cl` (stereo not drawn), for which the pIC50 was 5.21 at Cholinesterase and 4.24 in data set [1]. The compound further displayed an inhibition in data set [2] of 22.1%.

With `Clc1ccc(C(Cn2ccnc2)OCc2csc3c(Cl)cccc23)c(Cl)c1` (stereo not drawn) [SERTACONAZOLE], the pIC50 is 5.13 against Cholinesterase and 5.42 in data set [1].

Consider `Brc1cccc(C(Cn2ccnc2)OCc2nc3ccccc3s2)c1` (stereo not drawn), for which the negative-log IC50 (pIC50) against Cholinesterase is 4.82; in data set [1], 5.43. The inhibition in data set [2] came to 25.5%.

Regarding `Clc1ccc(COC(Cn2ccnc2)c2ccc(Cl)cc2Cl)c(Cl)c1` (stereo not drawn) [MICONAZOLE], the values for the pIC50 (on Cholinesterase; against Acetylcholinesterase; in data set [1]) were 5.37, 5.62 and 5.54, respectively. In data set [3], the Ratio IC50 was determined as 0.6.

With `Clc1ccc(C(Cn2ccnc2)OCc2cccc3ccccc23)c(Cl)c1` (stereo not drawn), the pIC50 is 5.40 at Cholinesterase, 4.04 against Acetylcholinesterase and 4.31 in data set [1]. In addition, the Ratio IC50 in data set [3] is 22.6.

With `Clc1ccc(C(Cn2ccnc2)OCc2cccnc2)c(Cl)c1` (stereo not drawn), the pIC50 on Cholinesterase was 4.38; against Acetylcholinesterase, 4.92; in data set [1], 4.02. Besides, the Ratio IC50 in data set [3] was found to be 0.3.

Consider `Clc1ccc(C(Cn2ccnc2)OCc2ccc3ccccc3c2)c(Cl)c1` (stereo not drawn), for which the negative logarithm of the IC50 (pIC50) at Cholinesterase was 7.05; on Acetylcholinesterase it was 5.37; in data set [1], 4.65. For the same compound, in data set [3], the Ratio IC50 was determined as 47.8. In addition, the CC50 at 48 h in data set [4] came out at 9.8 µM. Moreover, the inhibition entry in the data set listed under Homo sapiens [5] was “Dose-dependent effect”; in the data set filed under Homo sapiens [6], 48.3%.

Consider `Fc1ccc(C(Cn2ccnc2)OCc2nc3ccccc3s2)cc1F` (stereo not drawn), for which the pIC50 against Cholinesterase was 5.96; in data set [1], 4.45. In addition, the Ratio IC50 in data set [3] was more than 50. The compound further returned an inhibition in data set [2] of 7.2%.

As to `Clc1ccc(C(Cn2ccnc2)OCc2nc3ccccc3o2)c(Cl)c1` (stereo not drawn), the negative logarithm of the IC50 (pIC50) against Cholinesterase is 4.75; at Acetylcholinesterase, 4.35; in data set [1] it was 3.87. In addition, the Ratio IC50 in data set [3] came out at 2.5.

Take `Fc1ccc(C(Cn2ccnc2)OCc2nc3ccccc3s2)c(F)c1` (stereo not drawn): the pIC50 was 5.24 against Cholinesterase and 3.88 in data set [1]. The inhibition in data set [2] is 12.4%.

Regarding `Clc1ccc(C(Cn2ccnc2)OCc2ccsc2)c(Cl)c1` (stereo not drawn), the pIC50 against Cholinesterase is 4.50; against Acetylcholinesterase, 4.74; in data set [1], 4.20. Also, in data set [3], the Ratio IC50 is 0.6.

Turning to `Clc1ccc(C(Cn2ccnc2)OCc2nc3ccccc3s2)cc1` (stereo not drawn), the pIC50 is 5.10 against Cholinesterase and 4.06 in data set [1]. Besides, the inhibition in data set [2] turned out to be 17.8%.

Turning to `Clc1ccc(C(Cn2ccnc2)OCc2nc3ccccc3s2)cc1Cl` (stereo not drawn), the pIC50 at Cholinesterase was 6.00; in data set [1], 5.52. Moreover, the Ratio IC50 in data set [3] was more than 50. This compound had an inhibition in data set [2] of 5%.

Consider `Clc1ccccc1C(Cn1ccnc1)OCc1nc2ccccc2s1` (stereo not drawn), for which the pIC50 on Cholinesterase is 4.95; against Acetylcholinesterase it was 4.23; in data set [1], 4.22. In data set [2], the inhibition worked out at 47.4%.

With `Fc1ccc(C(Cn2ccnc2)OCc2nc3ccccc3s2)cc1` (stereo not drawn), the pIC50 on Cholinesterase was 5.41; in data set [1] it was 4.13. Also, the inhibition in data set [2] is 11.4%.

For `Clc1ccc(C(Cn2ccnc2)OCc2cc3ccccc3s2)c(Cl)c1` (stereo not drawn), the results for the negative logarithm of the IC50 (pIC50) (on Cholinesterase; at Acetylcholinesterase; in data set [1]) were 5.85, 4.81 and 4.75, respectively. For the same compound, the Ratio IC50 in data set [3] is 11.

Turning to `Clc1ccc(C(Cn2ccnc2)OCc2nc3ccccc3s2)c(Cl)c1` (stereo not drawn), the results for the pIC50 (against Cholinesterase; at Acetylcholinesterase; in data set [1]) were 5.41, 4.88 and 5.17, respectively. In addition, the Ratio IC50 in data set [3] was 3.4. Also, the CC50 at 48 h in data set [4] amounted to 11.8 µM. For the same compound, the inhibition result in the data set filed under Homo sapiens [5] is “Dose-dependent effect”; in the data set listed under Homo sapiens [6], 52.2%.

Take `Brc1ccc(C(Cn2ccnc2)OCc2nc3ccccc3s2)cc1` (stereo not drawn): the values for the pIC50 (on Cholinesterase; in data set [1]) were 5.00 and 4.31, respectively. The compound further displayed an inhibition in data set [2] of 21%.

In the case of `Clc1cccc(C(Cn2ccnc2)OCc2nc3ccccc3s2)c1` (stereo not drawn), the pIC50 on Cholinesterase is 5.22; in data set [1] it was 4.60. Further, the inhibition in data set [2] turned out to be 19.9%.
